Experimental data published in patent US12624050B2, “Three fused ring derivative-containing salt or crystal form and pharmaceutical composition thereof” (Shanghai Hansoh Biomedical Co., Ltd., priority 2019, dated 2026).

Assay: Screening of salts of the compound with counter ion acids
Type: physicochemical
Settings: for Results (salt screening): acetone 0.2 mL, solid-liquid reaction, room temperature; for Results (salt screening) / Post-treatment (salt screening): base:acid=1:1.2; for Experimental results (salt screening): natural evaporation at room temperature; for Post-treatment (salt screening): suspended in 0.2 mL of methanol at 50° C.
Description: 300 mg of free base was weighed, 15 mL of THE was added, and the mixture was heated to 50° C. to dissolve completely. The solution of the free base in THE was divided into […], and a certain amount of acid was added to each part (molar reaction ratio of base:acid=1:1.2), detailed as follows:
20 mg of free base was weighed, 0.2 mL of acetone was added, and the mixture was stirred and suspended at room temperature. Acid (molar reaction ratio of base:acid=1:1.2) was added to the suspension system for reaction, detailed as follows: […]
20 mg of free base was weighed, 0.2 mL of methanol was added, and the mixture was stirred and suspended at 50° C. Acid (molar reaction ratio of base:acid=1:1.2) was added to the suspension system for reaction, detailed as follows:
THF was used as solvent in No. 1 to 10, and the free base was dissolved in THE to form a clear solution and then acid was added. Ethanol was used as solvent in No. 11 to 14, the free base was suspended in ethanol, and a clear solution formed after adding an acid. The clear solution formed in No. 1-14 was placed at room temperature without sealing the container to evaporate the solvent.

[1] = acid: 1M oxalic acid in ethanol
[2] = acid: 1M phosphoric acid in ethanol

C[C@H](Nc1ccc2c(c1)OCCn1cc(N3C(=O)SC[C@H]3C(F)F)nc1-2)C(N)=O [Example 22, (S)-2-((2-((R)-4-(difluoromethyl)-2-oxothiazolidin-3-yl)-5,6-dihydrobenzo[f]imidazo[1,2-d][1,4]oxazepin-9-yl)amino)propionamide]
Mesylate was obtained: Results (salt screening) (acid: 1M methanesulfonic acid in ethanol)
Oil formed: Experimental results (salt screening) (THF as solvent, acid: Adipic acid) | Experimental results (salt screening) (THF as solvent, acid: Citric acid) | Experimental results (salt screening) (THF as solvent, acid: Fumaric acid) | Experimental results (salt screening) (THF as solvent, acid: Glycolic acid) | Experimental results (salt screening) (THF as solvent, acid: Maleic acid) | Experimental results (salt screening) (THF as solvent, acid: Malic acid) | Experimental results (salt screening) (THF as solvent, acid: Oxalic acid) | Experimental results (salt screening) (THF as solvent, acid: Phosphoric acid) | Experimental results (salt screening) (THF as solvent, acid: Succinic acid) | Experimental results (salt screening) (THF as solvent, acid: Tartaric acid)
Amorphous: Experimental results (salt screening) (ethanol as solvent, acid: Benzenesulfonic acid) | Experimental results (salt screening) (ethanol as solvent, acid: Hydrochloric acid) | Experimental results (salt screening) (ethanol as solvent, acid: Isethionic acid) | Experimental results (salt screening) (ethanol as solvent, acid: p-Toluenesulfonic acid)
No reaction, free base remained: Results (salt screening) (acid: 1M maleic acid in ethanol) | Results (salt screening) [1] | Results (salt screening) [2] | Post-treatment (salt screening) (acid: 1M maleic acid in methanol) | Post-treatment (salt screening) [1] | Post-treatment (salt screening) [2]
